Assays:
[1] = system: MIA-PaCa-2 cells; assay: MIA-PaCa-2 cellular proliferation (ATP-lite, 72 hours); type: cell-based, human
Method: MIA-PaCa-2 cells (ATCC catalog number CRM-CRL-1420, Manassas, VA) were cultured at 37° C. in T75 flasks in growth medium DMEM (ATCC) supplemented with 10% FBS and 2.5% horse serum. After 4 days, when the flasks reached 50% confluence, cells were harvested with trypsin and seeded in 96 well plates at a concentration of 5000 cells/well, in a total volume of 0.1 ml/well starvation medium and incubated 24 hours at 37° C., 5% CO2. The next morning, medium was replaced with 180 μl growth medium (containing 10% FBS and 2.5% horse serum) and 20 μl of each concentration of LUT014, DMSO or PBS. Each concentration of each compound was added to triplicate wells. The plates were incubated for 72 hours at 37° C., 5% CO2. Cellular proliferation was measured using the ATP-lite proliferation assay (Perkin Elmer, Waltham, MA) following the manufacturer's instructions, with the luminescence measured using a CLARIOstar reader (BMG Labtech, Ortenberg, Germany), and analyzed with the ATPlite TOP program (Perkin Elmer).

[2] = system: anti-EGFR therapy-induced acneiform lesions; assay: Phase 1 clinical trial: efficacy on acneiform lesions (CTCAE, MASCC, FACT-EGFRI-13); type: in vivo, human
Method: Three scales were used to evaluate the severity of acneiform lesions during the clinical trial period. The primary readout was based on the National Cancer Institute (NCI) Common Terminology Criteria for Adverse Events (CTCAE) version 5.0 for grading acneiform rash. The clinical trial eligibility criteria were based on having an acneiform skin rash of grade 1 or 2 while on anti-EGFR therapy, and therefore the grading change from baseline with the topical application of LUT014 was measured. The Multinational Association of Supportive Care in Cancer (MASCC) Study Group EGFR Inhibitor-dermatologic adverse event grading scale is a central reviewer-assessment based on the review of pictures provided to one remote reviewer (Wong, et al., Support Care Cancer 21, 2933-2948, 2013). The Functional Assessment of Cancer Therapy (FACT) is a health-related quality of life questionnaire to assess symptoms associated with EGFR inhibitors (Wagner, et al., Support Care Cancer 21, 1033-1041, 2013). The score based on the 13 skin-specific questions (FACT-EGFRI-13) was reported, and was calculated by the change in total score relative to baseline, with a decrease in value representing worsening and an increase value representing improvement of skin-related symptoms.
Evaluation of the preliminary efficacy of LUT014 gel for the treatment of anti-EGFR therapy-induced acneiform lesions was based on the following: A) Acneiform lesions grading performed locally by the Investigator using the NCI CTCAE version 5.0 skin and subcutaneous tissue disorders grading scale. B) Acneiform lesions grading performed by a central reader, using the MASCC Study Group EGFR Inhibitor-dermatologic adverse event grading scale (Wong, et al., 2013). Grading was based on masked photographs of patients' face, neck, and upper portion of the anterior and posterior chest. C) Patient self-reported quality of life FACT-EGFRI-13 questionnaire (Wagner et al, 2013), assessing the physical and psychological effects of the dermatological symptoms associated with anti-EGFR treatment on study patients. Only the first 13 questions of the FACT-EGFRI that are relevant for the skin were evaluated. Data from all patients who received at least one dose of study drug were included in the safety and efficacy analyses.

`Cc1ccc2c(Nc3cccc(OC(F)(F)F)c3)nccc2c1Nc1ncccc1-c1ncnc2[nH]cnc12` [LUT014] was tested, and the “concentration of peak proliferation” value [1] was 0.041 µM, the “proliferation at the highest concentrations” value [1] was “growth arrest” and the “time to CTCAE improvement” value ([2]; cohort 1, 0.3 mg/g) was “two of the patients showing improvement within the first week”. For the same molecule, the “FACT-EGFRI-13 skin-related symptom questionnaire change” value ([2]; cohort 1, 0.3 mg/g, 28-day treatment) was “the three patients had symptomatic improvement”, the “benefit after administration had terminated” value ([2]; cohort 1, 0.3 mg/g, all three patients, day 55) was “sustained benefit by day 55” and the “acneiform rash CTCAE grade change” value ([2]; cohort 1, 0.3 mg/g, three patients with grade 2 at baseline, 28-day treatment) was “all improved to grade 1”. The “central reviewer MASCC grading change” value ([2]; cohort 1, 0.3 mg/g, treatment period) was “two patients improved and one patient did not change”, the “acneiform skin rash, overall” value ([2]; cohort 2 (1.0 mg/g)) was “evidence of acneiform rash improvement” and the “FACT-EGFRI-13 symptom questionnaire change” value ([2]; cohort 2, 1.0 mg/g, baseline grade 1 rash) was “two patients with baseline grade 1 rash reported stable skin-related symptoms”. For the same molecule, the “FACT-EGFRI-13 symptom questionnaire change” value ([2]; cohort 2, 1.0 mg/g, baseline grade 2 rash) was “two patients with baseline grade 2 rash improved symptoms”, the MASCC grading change ([2]; cohort 2, 1.0 mg/g, four patients) was “three patients improved grading during the treatment period while one worsened” and the “acneiform rash CTCAE grade change” value ([2]; cohort 2, 1.0 mg/g, patients with grade 1 at baseline) was “two with grade 1 at baseline that did not change in grading”. For the same molecule, the “acneiform rash CTCAE grade change” value ([2]; cohort 2, 1.0 mg/g, patients with grade 2 at baseline, 28-day treatment) was “two with grade 2 at baseline that improved to grade 1”, the “FACT-EGFRI-13 symptom questionnaire change” value ([2]; cohort 3, 2.5 mg/g) was “one patient improved and two worsened” and the “acneiform rash CTCAE grade change” value ([2]; cohort 3, 2.5 mg/g, three patients, 28-day treatment) was “one improved, another was stable and one patient had worsening acneiform skin rash”. For the same molecule, the MASCC grading change ([2]; cohort 3, 2.5 mg/g, compared with the CTCAE course) was “The same course was evident”, the “acneiform skin rash, overall” value ([2]; highest dose cohort (2.5 mg/g)) was “no consistent evidence of improvement” and the “improvement of acneiform rash in grade 2 patients” value ([2]; low and intermediate cohorts (0.3 and 1.0 mg/g)) was “all grade 2 patients (six patients)”. The “acneiform skin rash, overall by three assessment criteria” value ([2]; lowest dose cohort (0.3 mg/g)) was “improved in all patients”.

— patent US20230321106A1, “USE OF TOPICAL BRAF INHIBITOR COMPOSITIONS FOR TREATMENT OF EPIDERMAL GROWTH FACTOR RECEPTOR DOWNSTREAM EFFECTORS - INDUCED CUTANEOUS REACTIONS” (Lutris Pharma Ltd., priority 2020, published 2023)
